{"source": "patent US20210252022A1", "about": "“COMPOSITION FOR THE PREVENTION OR THE TREATMENT OF VISUAL IMPAIRMENTS COMPRISING URSODEOXYCHOLIC ACID” (AMICOGEN PHARMA INC., priority 2017, published 2021)", "molecules": {"B1": {"name": "Lucentis®: antibody drug inhibiting the activity of VEGF, intravitreal injection once every four weeks (antibody, chains of the INN, looked up, V domains shown)", "VH": "EVQLVESGGGLVQPGGSLRLSCAASGYDFTHYGMNWVRQAPGKGLEWVGWINTYTGEPTYAADFKRRFTFSLDTSKSTAYLQMNSLRAEDTAVYYCAKYPYYYGTSHWYFDVWGQGTLVTVSS", "VL": "DIQLTQSPSSLSASVGDRVTITCSASQDISNYLNWYQQKPGKAPKVLIYFTSSLHSGVPSRFSGSGSGTDFTLTISSLQPEDFATYYCQQYSTVPWTFGQGTKVEIK", "modifications": "Fab"}}, "key": {"[1]": {"tested_on": "laser-induced choroidal neovascularization (CNV)", "test": "Fundus fluorescein angiography (FFA) in laser-induced CNV mouse model", "type": "in vivo, C57 BL/6 mice", "settings": "intravitreal injection 2 μl per eyeball, 14 days after laser injury, vs PBS"}, "[2]": {"tested_on": "laser-induced choroidal neovascularization (CNV)", "test": "Optical coherence tomography (OCT) in laser-induced CNV mouse model", "type": "in vivo, C57 BL/6 mice", "settings": "intravitreal injection, day 14 after laser injury, vs PBS"}, "[3]": {"tested_on": "function of the retina", "parameters": "species or system C57 BL/6 mice", "settings": "mouse, in vivo", "protocol": "5) After C57 BL/6 mice (Orient Bio, Korea) were acclimatized to be adapted to the environment for 1 week, 7-week old mice were treated with the image-guided laser (Phoenix, USA) especially optic nerve area at 3, 6, 9, and 12 o'clock positions. The laser was irradiated at 532 nm, 100 ms/70 ms, 200 mW, and a spot size was 50 μm.\nThe mice were dark adapted for 24 hours before test and all tests were performed in a darkroom. The eyes of mice were dilated and general anesthetized by intraperitoneal injection with a mixture of ketamine (30 mg/kg) and xylazine hydrochloride (2.5 mg/kg) in order to detect the function of the retina. Electrodes were placed in skin, tail and cornea to run electroretinography. […] The amplitude from the trough of A-wave to the peak of B-wave was measured and evaluated as an index of the function of the retina. […]\nFIG. 9A-FIG. 9F are the test results that measured the response degree of retina to the white light after dark adaptation of group with intravitreal injection at day 15 after laser injury.\nThe dose of each individual was calculated based on the body weight measured immediately prior to administration and then orally administered using a disposable syringe equipped with sonde. […]\nFIG. 14A-FIG. 14E are the test results that measured the response degree of retina to the white light after dark adaptation of group with oral administration at day 14 after laser injury."}, "[4]": {"tested_on": "vascular endothelial growth factor (VEGF)", "test": "Western blot analysis of VEGF expression in the choroid and the retina", "type": "in vivo, C57 BL/6 mice", "settings": "intravitreal administration, day 15 after laser injury"}, "[5]": {"settings": "crystalline form, cited from earlier work"}, "[6]": {"settings": "cited from earlier work"}, "[7]": {"settings": "DMSO/PBS (pH 7.2) solution; cited from earlier work"}, "[8]": {"settings": "cited from earlier work", "remark": "listed apart in the source"}, "[9]": {"tested_on": "wet (age-related) macular degeneration", "settings": "in vivo; cited from earlier work"}}, "note": "“Also recorded” adds a separate entry of the source. Where two headings read alike, the source gives them in different places."}
{"molecule": "Eylea®: conventional VEGF antibody drug, positive control, intravitreal injection", "values": [{"measurement": "choroidal neovascularization (FFA, corrected total fluorescence)", "setting": "[1]", "value": "statistically significantly inhibited"}, {"measurement": "size of CNV lesions (OCT)", "setting": "[2]", "value": "statistically significantly inhibited"}, {"measurement": "ERG response", "setting": "[3]", "value": "increased"}, {"measurement": "expression of VEGF in the choroid and the retina", "setting": "[4]", "value": "decreased; also recorded: less compared to that of YSB201"}]}
{"molecule": "C[C@H](CCC(=O)NCCS(=O)(=O)O)[C@H]1CC[C@H]2[C@@H]3[C@@H](O)C[C@@H]4C[C@H](O)CC[C@]4(C)[C@H]3CC[C@]12C", "note": "[tUDCA, tauroursodeoxycholic acid]", "values": [{"measurement": "pH (strong acidity)", "setting": "[5]", "value": "≤ 1"}, {"measurement": "solubility in water", "setting": "[6]", "value": 200, "unit": "µg/mL"}, {"measurement": "solubility", "setting": "[6]; first dissolved in DMSO, then mixed with PBS (pH 7.2) 1:4", "value": "up to 200 mg/l"}, {"measurement": "time the stability of the solution can be maintained", "setting": "[7]", "value": "about 1 day"}]}
{"molecule": "C[C@H](CCC(=O)O)[C@H]1CC[C@H]2[C@@H]3[C@@H](O)C[C@@H]4C[C@H](O)CC[C@]4(C)[C@H]3CC[C@]12C", "note": "[UDCA, ursodeoxycholic acid]", "values": [{"measurement": "acid dissociation constant, pKa", "setting": "[5]", "value": "about 5.0"}, {"measurement": "acid dissociation constant, pKa", "setting": "[5]; listed as ursodeoxycholic acid", "value": 5.1}, {"measurement": "solubility in water", "setting": "[6]", "value": 20, "unit": "µg/mL"}, {"measurement": "solubility in water", "setting": "[6]; protonated form", "value": 53, "unit": "µM"}, {"measurement": "absorbed at the ileum of the colon by the active transport mechanism", "setting": "[8]; oral tablet or capsule, crystalline form", "value": "up to 20 % of intakes"}, {"measurement": "absorbed along the jejunum and ileum by nonionic passive diffusion", "setting": "[8]; oral tablet or capsule", "value": "30-60%"}, {"measurement": "absorbed to the liver through the small intestine", "setting": "[8]; taken orally", "value": "≥ 95", "unit": "%"}]}
{"molecule": "B1", "values": [{"measurement": "vision improvement rate", "setting": "[9]", "value": 40, "unit": "%"}, {"measurement": "vision maintenance effect", "setting": "[9]", "value": 90, "unit": "%"}]}
